Results on four compounds are retold here after patent publication US10934255B2, “Nrf and HIF activators/HDAC inhibitors and therapeutic methods using the same” (THE BOARD OF TRUSTEES OF THE UNIVERSITY OF ILLINOIS, priority 2017, dated 2021).

Structures are written as SMILES. Like-named read-outs stand apart in the source and are kept apart here.

A word on the IC50: it is the point on the concentration scale where inhibition reaches its midpoint.

In one data set the target is HDAC4 (Homo sapiens, UniProt P56524). Nature of the data set: HDAC4 isoform selectivity assay. In kind it is biochemical. The note with it: Table 2 isoform selectivity; read-out: HDAC Inhibition (IC50 uM) isoform 4. As to the method: (§1) The HDAC1, 2, 4, 5, 6, 7, 8, 9, 10, and 11 assays used isolated recombinant human protein; HDAC3/NcoR2 complex was used for the HDAC3 assay. Substrate for HDAC1, 2, 3, 6, 10, and 11 assays is a fluorogenic peptide from p53 residues 379-382 (RHKKAc); substrate for HDAC8 is fluorogenic diacyl peptide based on residues 379-382 of p53 (RHKAcKAc). Acetyl-Lys(trifluoroacetyl)-AMC substrate was used for HDAC4, 5, 7, and 9 assays. Compounds were dissolved in DMSO and tested in 10-dose IC50 mode with 3-fold serial dilution starting at 30 μM. Control Compound Trichostatin A (TSA) was tested in a 10-dose IC50 with 3-fold serial dilution starting at 5 μM. IC50 values were extracted by curve-fitting the dose/response slopes. Assays were performed in duplicate and IC50 values are an average of data from both experiments.
Chain of HDAC4 (P56524 whole entry, the tested form may be a part, canonical isoform): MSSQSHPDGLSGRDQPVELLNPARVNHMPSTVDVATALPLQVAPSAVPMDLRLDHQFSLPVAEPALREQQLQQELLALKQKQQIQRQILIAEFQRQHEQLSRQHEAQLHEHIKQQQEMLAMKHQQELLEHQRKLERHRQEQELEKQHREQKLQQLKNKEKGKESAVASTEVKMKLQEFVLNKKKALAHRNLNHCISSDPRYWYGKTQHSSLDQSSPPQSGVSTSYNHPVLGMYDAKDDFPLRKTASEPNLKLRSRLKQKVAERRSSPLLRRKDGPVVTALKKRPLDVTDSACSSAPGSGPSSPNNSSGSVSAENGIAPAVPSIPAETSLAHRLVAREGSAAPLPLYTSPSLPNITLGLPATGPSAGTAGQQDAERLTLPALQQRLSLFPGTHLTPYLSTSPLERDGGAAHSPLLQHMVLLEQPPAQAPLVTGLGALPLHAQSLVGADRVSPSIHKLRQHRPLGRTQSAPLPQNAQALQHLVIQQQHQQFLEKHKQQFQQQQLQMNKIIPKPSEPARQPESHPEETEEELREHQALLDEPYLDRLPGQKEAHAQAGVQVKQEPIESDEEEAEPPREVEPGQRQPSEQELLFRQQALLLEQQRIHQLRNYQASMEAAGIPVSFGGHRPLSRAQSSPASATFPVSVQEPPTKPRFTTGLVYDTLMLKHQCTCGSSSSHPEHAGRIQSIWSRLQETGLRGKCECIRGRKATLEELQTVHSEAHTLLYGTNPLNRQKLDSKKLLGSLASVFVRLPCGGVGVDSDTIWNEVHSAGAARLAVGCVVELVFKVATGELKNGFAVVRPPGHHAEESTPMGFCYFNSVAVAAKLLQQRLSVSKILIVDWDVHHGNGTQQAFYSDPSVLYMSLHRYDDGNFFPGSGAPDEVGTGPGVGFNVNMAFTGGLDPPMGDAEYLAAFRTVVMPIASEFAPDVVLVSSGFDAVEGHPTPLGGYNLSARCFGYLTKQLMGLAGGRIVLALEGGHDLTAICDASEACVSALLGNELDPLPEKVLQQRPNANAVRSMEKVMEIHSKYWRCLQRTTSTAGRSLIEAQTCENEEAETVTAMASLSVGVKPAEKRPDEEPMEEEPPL

The target in the next data set is T1, HDAC7 (Homo sapiens, UniProt Q8WUI4).
T1 sequence (Q8WUI4 1-952): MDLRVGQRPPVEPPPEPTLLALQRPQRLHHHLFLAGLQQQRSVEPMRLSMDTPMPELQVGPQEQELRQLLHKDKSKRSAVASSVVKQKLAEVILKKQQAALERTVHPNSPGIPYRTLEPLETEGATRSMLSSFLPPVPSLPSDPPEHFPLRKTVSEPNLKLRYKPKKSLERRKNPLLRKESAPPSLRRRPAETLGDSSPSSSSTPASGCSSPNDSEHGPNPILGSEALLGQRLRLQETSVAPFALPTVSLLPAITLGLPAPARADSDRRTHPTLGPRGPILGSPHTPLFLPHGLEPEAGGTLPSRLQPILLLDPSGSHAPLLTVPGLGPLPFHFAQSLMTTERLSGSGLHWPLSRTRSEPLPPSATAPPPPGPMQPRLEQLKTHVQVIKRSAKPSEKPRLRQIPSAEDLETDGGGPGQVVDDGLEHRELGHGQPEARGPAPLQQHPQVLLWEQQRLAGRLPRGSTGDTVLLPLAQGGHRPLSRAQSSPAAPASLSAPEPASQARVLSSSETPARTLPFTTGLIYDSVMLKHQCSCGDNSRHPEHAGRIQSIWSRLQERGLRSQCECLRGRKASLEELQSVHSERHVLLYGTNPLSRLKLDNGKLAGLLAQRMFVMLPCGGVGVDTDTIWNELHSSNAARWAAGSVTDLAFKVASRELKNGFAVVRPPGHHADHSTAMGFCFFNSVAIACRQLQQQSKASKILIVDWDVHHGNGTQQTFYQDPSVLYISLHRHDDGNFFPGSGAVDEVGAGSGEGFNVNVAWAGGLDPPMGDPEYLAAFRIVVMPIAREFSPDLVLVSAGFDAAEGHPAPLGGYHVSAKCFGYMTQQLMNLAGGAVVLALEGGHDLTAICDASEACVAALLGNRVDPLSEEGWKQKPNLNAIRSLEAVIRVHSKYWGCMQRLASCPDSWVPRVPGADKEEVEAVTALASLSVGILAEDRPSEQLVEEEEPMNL
Nature of the data set: HDAC7 isoform selectivity assay. In kind it is biochemical. As to conditions: Table 2 isoform selectivity; read-out: HDAC Inhibition (IC50 uM) isoform 7. The procedure:
as §1

Data set [1] is described as follows: Blood brain barrier test: tissue concentration after iv injection. In kind it is in vivo, Mouse. As to conditions: after 20 minutes. As to the method:
Tests were conducted to determine the ability of a present compound to cross the blood brain barrier (BBB). In particular, Mouse 1 was injected iv with about 7.5 mg/kg of compound II-ING-6 in DMSO. Mouse 2—about 10 mg/kg. Blood, brain, and liver were collected after 20 minutes (Table 4).

For data set [2], the system named is human neuronal SH-SY5Y cells. Nature of the data set: H2O2-induced neurotoxicity in SH-SY5Y cells (MTT). The class given is cell-based. The note with it: 24 h pretreatment, MTT at 24 h. The procedure:
FIG. 2A contains bar graphs showing the concentration-dependent neuroprotection of SH-SY5Y cells from H2O2-induced toxicity. Cell viability was measured using the MTT assay at 24 h. […] (B) Test compounds at 5 μM protected N2a cells against MPP+ (100 μM) insult. Cell viability was measured at 24 h using Presto-Blue assay.
(§2) II-ING-6 and II-ING-66, were tested in neuronal cell lines subjected to H2O2 and MPP+-induced toxicity (Parkinson's disease model), and in a composite model of ischemia-reperfusion injury: oxygen glucose deprivation (OGD). In H2O2-induced neurotoxicity in human neuronal SH-SY5Y cells, neuroprotective properties of compounds II-ING-6 and II-ING-66 were assessed using 24 h pretreatment regimen (FIG. 2A). […] Neuroprotection against OGD is expected to be mediated by HIF-1α and Nrf2. In this assay, after pretreatment of cells 24 h prior to OGD insult, both compounds were neuroprotective (FIG. 3A).

The subject of another data set is mouse neuronal N2a cells. Nature of the data set: MPP+ neurotoxicity in N2a cells (Presto-Blue). In kind it is cell-based. As to conditions: 5 μM compound, MPP+ 100 μM, 24 h. The procedure:
FIG. 2B contains bar graphs showing test compounds at 5 μM protected N2a cells against MPP+(100 μM) insult. Cell viability was measured at 24 h using Presto-Blue assay.
as §2

Another data set has as its system SH-SY5Y cells. Nature of the data set: Oxygen glucose deprivation (OGD) in SH-SY5Y cells (MTT). In kind it is cell-based, human. As to conditions: for Neuroprotection against OGD, pretreatment: pretreatment 24 h prior to OGD insult; for Neuroprotection against OGD, post-treatment: treatment after OGD. As to the method:
FIG. 3A contains bar graphs showing a concentration dependence of II-ING-6 and II-ING-66 neuroprotection in SH-SY5Y cells subject to OGD: 24 h pretreatment.
FIG. 3B contains bar graphs showing concentration dependencies of II-ING-6 and II-ING-66 neuroprotection in SH-SY5Y cells subject to OGD: treatment post OGD. Cell viability was measured using the MTT assay 24 h post insult.
as §2

The nature of data set [3]: liver-on-a-chip assay, viability of HepaRG hepatocytes by MTT. In kind it is cell-based. As to conditions: human, HepaRG hepatocytes in liver-on-a-chip, read-out: LC50.
The test system of data set [4] is TA98-S9, TA100-S9, TA1535-59, and TA1537-59. Nature of the data set: Ames test (genetic toxicity). As to conditions: concentrations of 0.6-100 μM. The arrangement: species or system bacterium. The procedure: Compound II-ING-6 was tested in genetic toxicity assays to assess the mutagenic potential of the compound. The Ames test was done with several strains of bacterium, such as: TA98-S9, TA100-S9, TA1535-59, and TA1537-59.
Background: In the Ames test, an excess of revertant colonies over the control signals mutagenicity.

Data set [5] has as its system panel of 43 cloned human and rodent CNS receptors, channels and transporters. Nature of the data set: PDSP selectivity panel. The class given is binding. The note with it: 43 CNS receptors. As to the method: Compound II-ING-6 also was tested in a panel of 43 cloned human and rodent CNS receptors, channels and transporters using the NIMH sponsored Psychoactive Drug Screening Program (PDSP).

Take `O=C(NO)c1ccc(CN2CCc3ccc(Cl)cc32)cc1` [II-ING-6, 4-((6-Chloroindolin-1-yl)methyl)-N-hydroxybenzamide]: the IC50 was 3.48 µM on HDAC4 and 0.98 µM on HDAC7. Also, the concentration at 20 min in [1] (brain, Mouse 1, iv 7.5 mg/kg in DMSO, read-out: Concentration, Brain) is 1060 ng/g; in [1] (brain, Mouse 2, iv 10 mg/kg in DMSO, read-out: Concentration, Brain) it was 1760 ng/g; in data set [1] (liver, Mouse 1, iv 7.5 mg/kg in DMSO, read-out: Concentration, Liver) it was 501 ng/g; in data set [1] (liver, Mouse 2, iv 10 mg/kg in DMSO, read-out: Concentration, Liver), 1030 ng/g; in [1] (plasma, Mouse 1, iv 7.5 mg/kg in DMSO, read-out: Concentration, Plasma) it was 256 ng/g; in [1] (plasma, Mouse 2, iv 10 mg/kg in DMSO, read-out: Concentration, Plasma), 387 ng/g. Besides, the “Neuroprotection from H2O2-induced toxicity” value in [2] is recorded as “Significant neuroprotection”. For the same compound, the “Protection against MPP+ neurotoxicity” value in the data set on mouse neuronal N2a cells was “significant protection”. Besides, in the data set with SH-SY5Y cells, the “Neuroprotection against OGD, pretreatment” value is reported as “neuroprotective”. The “Neuroprotection against OGD, post-treatment” value in the data set on SH-SY5Y cells was “significant neuroprotection”. For the same compound, the CC50 at 48 h in [3] is > 500000 nM. For the same compound, the “Ames test result (mutagenic potential)” value in data set [4] is reported as “Negative”. In addition, the “Activity in PDSP panel” value in data set [5] is recorded as “No significant activity”.
In the case of `Cn1c(NCc2ccc(C(=O)NO)cc2)nc2ccccc21` [II-ING-13, N-Hydroxy-4-(((1-methyl-1H-benzo[d]imidazol-2-yl)amino)methyl)benzamide], the figures for the half-inhibitory concentration (IC50) on HDAC4 and at HDAC7 were 2.42 µM and 0.55 µM, respectively.
In the same order, the values of `O=C(NO)c1ccc(CN2CCc3ccc(F)cc32)cc1` [II-ING-41, 4-((6-Fluoroindolin-1-yl)methyl)-N-hydroxybenzamide] are 2.41 µM and 0.46 µM.
With `O=C(NO)c1ccc(CN2C(=O)C(F)(F)c3ccccc32)cc1` [II-ING-66, 4-((3,3-Difluoro-2-oxoindolin-1-yl)methyl)-N-hydroxybenzamide], the “Neuroprotection from H2O2-induced toxicity” value in data set [2] is recorded as “Significant neuroprotection”. Moreover, the “Protection against MPP+ neurotoxicity” value with mouse neuronal N2a cells is recorded as “significant protection”. In the data set with SH-SY5Y cells, the “Neuroprotection against OGD, pretreatment” value is on record as “neuroprotective” and the “Neuroprotection against OGD, post-treatment” value was “significant neuroprotection only for compound II-ING-6”. Besides, in data set [3], the CC50 at 48 h is > 500000 nM.
